Assay results taken from PubChem BioAssay (NCI).
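Following 48 hours of exposure in 96-well plates, responses at five concentrations were used to interpolate endpoints linearly. TGI denotes the concentration required for complete inhibition of growth.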

Key:
Experiment in all cases: inhibition of tumour cell growth, NCI panel, 48 h
A498 renal = tested on: A498 renal
COLO 205 colon = tested on: COLO 205 colon
HL-60(TB) leukemia = tested on: HL-60(TB) leukemia
HOP-62 NSCLC = tested on: HOP-62 NSCLC
HOP-92 NSCLC = tested on: HOP-92 NSCLC
NCI/ADR-RES ovarian = tested on: NCI/ADR-RES ovarian
PC-3 prostate = tested on: PC-3 prostate
RXF 393 renal = tested on: RXF 393 renal
SF-295 CNS = tested on: SF-295 CNS
SN12C renal = tested on: SN12C renal
MDA-N = tested on: MDA-N

SMILES	TGI (A498 renal) [µM]	TGI (COLO 205 colon) [µM]	TGI (HL-60(TB) leukemia) [µM]	TGI (HOP-62 NSCLC) [µM]	TGI (HOP-92 NSCLC) [µM]	TGI (NCI/ADR-RES ovarian) [µM]	TGI (PC-3 prostate) [µM]	TGI (RXF 393 renal) [µM]	TGI (SF-295 CNS) [µM]	TGI (SN12C renal) [µM]	TGI (MDA-N) [µM]
COc1cc2c(cc1OC)C1C3CCCCC3CCN1CC2 (configuration not stated)	> 100	> 100	> 100	> 100	> 100	> 100	> 100	> 100	> 100	> 100	
COc1cc(O)c2c(c1)C(=O)c1cc3c(c(O)c1C2=O)C(OC1OC(C)C(OC)C(O)C1OC)C(OC)C(C)(O)C3=O (configuration not stated)	21.7	13.3	> 100	44.2			14.1		18.3		
Cc1nc(C)c(C(=O)NNC(=O)C[N+](C)(C)C)cc1C(=O)NNC(=O)C[N+](C)(C)C	> 100	> 100	> 100	> 100	> 100	> 100		> 100	> 100	> 100	> 100
CC(=O)NC1C(OCc2ccccc2)OC(CO)C(O)C1OCC(=O)N[C@@H](C)C(=O)N[C@H](CCC(=O)NCCCNc1c2ccccc2nc2cccc([N+](=O)[O-])c12)C(N)=O (some centres not stated)	0.944	0.0185	> 49.7	0.576			0.493		1.33	0.327	0.102
O=C1CCC(c2ccccc2)=NN1c1nsc2ccccc12		> 100	> 100	> 100	> 100			> 100		> 100	
COc1cc(OC)c2c(=O)cc(-c3ccc(OC)c(OC)c3OC)oc2c1		> 100	> 100	> 100	> 100			> 100	> 100	> 100	
O=C1NC(N2CCOCC2)=N/C1=C\c1ccco1		> 100	> 100	> 100	> 100	> 100	> 100	> 100	> 100	> 100	> 100
CC(O)CNC(=O)C(C)Oc1ccc(OCC2CCCCC2)cc1 (configuration not stated)	> 100		> 100						> 100	> 100	
CC(C)c1cc2c(c(O)c1O)[C@@]1(C(=O)O)CCCC(C)(C)[C@@H]1CC2		> 100		65.2	20.8	31.3	33.9	66.7	68.5	64.8	> 100
O=P(O)(O)C(N=C(Nc1ccccc1)Nc1ccccc1)P(=O)(O)O		> 100		> 100		> 100	> 100	> 100	> 100		> 100
